≈ marks a conversion by molar mass, not a printed value.
Columns and labels:
[1] = Cytotoxicity against human HepG2 cells assessed as reduction in cell viability after 40 hrs by Celltiter-Glo assay
[2] = system: Mycobacterium tuberculosis; assay: Antimycobacterial activity against Mycobacterium tuberculosis H37Rv incubated for 5 days by Bactiter-Glo assay; assay type: functional; details: 120 h
[3] = system: Mycobacterium tuberculosis; assay: Ratio of MIC80 for Mycobacterium tuberculosis H37Rv in presence of 25% human serum to MIC80 for Mycobacterium tuberculosis H37Rv; assay type: functional
[4] = system: Mycobacterium tuberculosis; assay: Antimycobacterial activity against Mycobacterium tuberculosis H37Rv incubated for 5 days in presence of 25% human serum by Bactiter-Glo assay; assay type: functional; details: 120 h
[5] = Lipophilicity, log P of compound; details: octanol/water
[6] = biological target: T1, Cytochrome P450 3A4 (Homo sapiens, UniProt P08684); assay: Inhibition of CYP3A4 in human liver microsomes assessed as 6-beta-hydroxytestosterone metabolite formation using testosterone as substrate incubated for 30 mins by HPLC-MS method
T1 sequence (P08684 whole entry): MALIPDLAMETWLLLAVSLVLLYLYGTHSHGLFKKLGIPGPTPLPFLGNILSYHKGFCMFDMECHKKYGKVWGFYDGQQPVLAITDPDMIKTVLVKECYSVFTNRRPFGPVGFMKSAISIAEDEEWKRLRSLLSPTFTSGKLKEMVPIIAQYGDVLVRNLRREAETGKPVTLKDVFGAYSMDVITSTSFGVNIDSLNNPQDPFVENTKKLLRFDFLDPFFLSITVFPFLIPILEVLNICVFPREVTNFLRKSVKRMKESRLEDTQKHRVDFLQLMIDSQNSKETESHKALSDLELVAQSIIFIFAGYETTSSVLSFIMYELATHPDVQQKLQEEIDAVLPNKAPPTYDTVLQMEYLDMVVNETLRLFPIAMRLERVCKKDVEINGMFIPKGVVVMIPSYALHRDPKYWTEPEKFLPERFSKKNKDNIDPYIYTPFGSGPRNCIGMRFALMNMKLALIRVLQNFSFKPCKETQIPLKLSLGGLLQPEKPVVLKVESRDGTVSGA

[7] = Aqueous equilibrium solubility of compound in pH 7.4 solution at 20 degC; details: aqueous pH 7.4 solution
[8] = Permeability in human Caco2 cells; details: caco-2
[9] = biological target: T1, Cytochrome P450 3A4; assay: Inhibition of CYP3A4 in human liver microsomes assessed as 1'-hydroxymidazolam metabolite formation using midazolam as substrate incubated for 10 mins by HPLC-MS method
[10] = Aqueous equilibrium solubility of compound in pH 1 solution at 20 degC; details: aqueous pH 1 solution
[11] = system: Mycobacterium tuberculosis; assay: Antimycobacterial activity against GFP-tagged Mycobacterium tuberculosis H37Rv infected in mouse RAW264.7 cells incubated for 4 days by Mask blue/Hoechst/FITC staining based fluorescence microscopic analysis; assay type: functional; details: 96 h

Compound	IC50 at 40 h ([1]; HepG2 cells) [µM]	MIC80 [2] [µM]	Ratio [3]	MIC80 [4] [µM]	IC50 at 40 h ([1]; hepg2) [µM]	logP [5]	IC50 [6] [µM]	solubility thermodynamic [7] [µg/mL]	permeability [8]	IC50 [9] [µM]	solubility thermodynamic [10] [µg/mL]	MIC80 [11] [µM]
COc1ccc(CCCNc2nc3cc(Cl)ccc3c(=O)n2C)cc1	16.8	5.8 (≈ 2.08 µg/mL)	>10									
COc1ccc(-c2ccc(CCNc3nc4cc(Cl)ccc4c(=O)n3C)nc2)cn1	24.1	0.31 (≈ 0.131 µg/mL)	8	> 15								
Cn1c(NCCc2ccc(-n3cccn3)cc2)nc2cc(Cl)ccc2c1=O		0.02 (≈ 0.0076 µg/mL)		8.56	17.3							
COc1ccc(CCNc2nc3cc(F)ccc3c(=O)n2C)cc1	> 30	0.2 (≈ 0.0655 µg/mL)	>10									
COc1ccc(CCNc2nc3cc(Cl)ccc3c(=O)n2C)nc1	27	0.53 (≈ 0.183 µg/mL)	8			3.32	7.4	9 (≈ 26.1 µM)	Permeable	< 1	1140 (≈ 3300 µM)	
COc1ccc(CCNc2nc3cc(C#N)ccc3c(=O)n2C)cc1	12.7	0.48 (≈ 0.161 µg/mL)	>10									
Cn1c(NCCc2ccc(N3CCOCC3)cc2)nc2cc(Cl)ccc2c1=O	> 30	0.33 (≈ 0.132 µg/mL)	8	> 10			11	8 (≈ 20.1 µM)	Permeable	11	1090 (≈ 2740 µM)	
COc1ccc(CCNc2nc3cc(C)ccc3c(=O)n2C)cc1	> 30	0.01 (≈ 0.00323 µg/mL)	>10				4.8	< 1	Permeable	< 1	221 (≈ 683 µM)	
COc1ccc(NCc2nc3cc(Cl)ccc3c(=O)n2C)cc1	15.7	19.9 (≈ 6.56 µg/mL)	>10									
Cn1c(NCCc2ccc(-c3ccc(Cl)cn3)cc2)nc2cc(Cl)ccc2c1=O	> 30	0.002 (≈ 0.000851 µg/mL)	30	0.25		5.04	8.4	< 1	Permeable	> 30	21 (≈ 49.4 µM)	0.063 (≈ 0.0268 µg/mL)
COc1ccc(-c2ccc(CCNc3nc4cc(Cl)ccc4c(=O)n3C)nn2)cc1		0.74 (≈ 0.312 µg/mL)	8									
COc1ccc(CCNc2nc3cc(N)ccc3c(=O)n2C)cc1		0.04 (≈ 0.013 µg/mL)	5	0.198		1.94						
Cn1c(NCCc2ccc(OC(F)(F)F)cc2)nc2cc(Cl)ccc2c1=O	9.9	0.07 (≈ 0.0278 µg/mL)	8	2.33		4.95	> 30	< 1	Permeable	4	43 (≈ 108 µM)	
COc1ccc(CCNc2nc3ccccc3c(=O)n2C)cc1	> 30	0.24 (≈ 0.0742 µg/mL)	>10									
COc1ccc(-c2ccc(CCNc3nc4cc(Cl)ccc4c(=O)n3C)cc2)nc1	11.9	0.06 (≈ 0.0253 µg/mL)	8			4.67						
COc1ccc(CCNc2nc3cc(N(C)C)ccc3c(=O)n2C)cc1		0.11 (≈ 0.0388 µg/mL)	>10			1.94						
COc1ccc(CCNc2nc3cc(Cl)ccc3c(=O)[nH]2)cc1		6.3 (≈ 2.08 µg/mL)	>10									
CCn1c(NCCc2ccc(OC)cc2)nc2cc(Cl)ccc2c1=O	21	1.1 (≈ 0.394 µg/mL)	>10									
COc1ccc(-c2ccc(CCNc3nc4cc(Cl)ccc4c(=O)n3C)nc2)cc1	14.7	0.32 (≈ 0.135 µg/mL)	8			4.03						
Cn1c(NCCc2ccc(Oc3ccccn3)cc2)nc2cc(Cl)ccc2c1=O	12.1	0.06 (≈ 0.0244 µg/mL)	8	7.37								
Cn1c(NCCc2ccc(-c3ccccc3)nn2)nc2cc(Cl)ccc2c1=O	15.1	1.12 (≈ 0.439 µg/mL)	8									

Compound	IC50 at 40 h ([1]; HepG2 cells) [µM]	MIC80 [2] [µM]	Ratio [3]	MIC80 [4] [µM]	IC50 at 40 h ([1]; hepg2) [µM]	logP [5]	IC50 [6] [µM]	solubility thermodynamic [7] [µg/mL]	permeability [8]	IC50 [9] [µM]	solubility thermodynamic [10] [µg/mL]	MIC80 [11] [µM]
Cn1c(NCCc2ccc(-c3ccc(Cl)cc3)nn2)nc2cc(Cl)ccc2c1=O	> 30	0.03 (≈ 0.0128 µg/mL)	8	3.32		4.67						
Cn1c(NCCc2ccccc2)nc2cc(Cl)ccc2c1=O	15.2	0.06 (≈ 0.0188 µg/mL)	8	2.79		4.24	18	< 1	Permeable	11	180 (≈ 574 µM)	
Cn1c(NCCc2ccc(-c3ccccn3)cc2)nc2cc(Cl)ccc2c1=O		0.027 (≈ 0.0106 µg/mL)		25.2	16.5							
COc1ccc(CCNc2nc3cc(OC)ccc3c(=O)n2C)cc1	> 30	0.026 (≈ 0.00882 µg/mL)	>10			3.1	10	4 (≈ 11.8 µM)	Permeable	< 1	734 (≈ 2160 µM)	
Cn1c(NCCc2ccc(-c3ccccc3)cc2)nc2cc(Cl)ccc2c1=O	6.5	0.008 (≈ 0.00312 µg/mL)	8	0.87		5.27	> 30	< 1	Permeable	> 30	5 (≈ 12.8 µM)	0.164 (≈ 0.0639 µg/mL)
COc1cnc(-c2ccc(CCNc3nc4cc(Cl)ccc4c(=O)n3C)cc2)nc1		0.016 (≈ 0.00675 µg/mL)		3.52	> 30							0.081 (≈ 0.0342 µg/mL)
Cn1c(NCCc2ccc(-c3ccccc3)cn2)nc2cc(Cl)ccc2c1=O	18.3	0.004 (≈ 0.00156 µg/mL)	8									
Cn1c(NCCc2ccc(-c3ccc(F)cc3)cn2)nc2cc(Cl)ccc2c1=O	0.057	0.06 (≈ 0.0245 µg/mL)	8	4.02		4.23						0.201 (≈ 0.0822 µg/mL)
COc1ccc(-c2ccc(CCNc3nc4cc(Cl)ccc4c(=O)n3C)cc2)cn1	11.3	0.09 (≈ 0.0379 µg/mL)	8			4.68						
COc1ccc(-c2ccc(CCNc3nc4cc(Cl)ccc4c(=O)n3C)cc2)cc1	> 30	0.007 (≈ 0.00294 µg/mL)	200	1.47		5.13	7.9	< 1	Permeable	8	26 (≈ 61.9 µM)	
Cn1c(NCCc2ccc(-c3ncccn3)cc2)nc2cc(Cl)ccc2c1=O		0.079 (≈ 0.031 µg/mL)		4.06	25.4							
Cn1c(NCCc2ccc(-c3ncc(F)cn3)cc2)nc2cc(Cl)ccc2c1=O	> 30	0.003 (≈ 0.00123 µg/mL)	30	0.39		4.46	9.9	< 1	Permeable	> 30	11 (≈ 26.8 µM)	0.013 (≈ 0.00533 µg/mL)
Cn1c(NCCc2ccc(Oc3ccc(Cl)cn3)cc2)nc2cc(Cl)ccc2c1=O		0.02 (≈ 0.00883 µg/mL)		1.76	13							
Cn1c(NCCc2ccc(-c3ncc(Cl)cn3)cc2)nc2cc(Cl)ccc2c1=O	> 30	0.006 (≈ 0.00256 µg/mL)		0.11		5.02		< 1	Permeable		10 (≈ 23.5 µM)	0.947 (≈ 0.404 µg/mL)
COc1ccc(CCNc2nc3ccc(Cl)cc3c(=O)n2C)cc1	26.1	0.9 (≈ 0.309 µg/mL)	>10									
Cn1c(NCCc2ccc(-c3ccc(F)cn3)cc2)nc2cc(Cl)ccc2c1=O		0.015 (≈ 0.00613 µg/mL)		3.14	19							0.051 (≈ 0.0209 µg/mL)
COCCOc1ccc(CCNc2nc3cc(Cl)ccc3c(=O)n2C)cc1	> 30	0.08 (≈ 0.031 µg/mL)	8	> 10		3.86						
Cn1c(NCCc2ccc(-n3cc(Cl)cn3)cc2)nc2cc(Cl)ccc2c1=O	21.6	0.01 (≈ 0.00414 µg/mL)	8	0.86		4.67		< 1	Permeable	16	< 1	
COc1ccc(CCN(C)c2nc3cc(Cl)ccc3c(=O)n2C)cc1	> 30	11.2 (≈ 4.01 µg/mL)	>10									
COc1ccc(CCNc2nc3cc(Cl)c(F)cc3c(=O)n2C)cc1	> 30	0.03 (≈ 0.0109 µg/mL)	>10									
